Measurements as given in paper PMC7794376 (Nature Communications, 2021).
Several values for one entry are separate records, joined by “and”; a condition that tells them apart may be missing. Equal values may be shown once. Read-outs that look alike come from different tables or passages of the source.

What was measured:
human CoaB (HCoaB) = human CoaB (HCoaB) (Homo sapiens, UniProt Q9HAB8); assay: EnzChek pyrophosphate assay, HCoaB; assay type: biochemical; settings: for Activity: slope of absorbance at 360 nm vs time (s)
MtbCoaBC = MtbCoaBC (Mycobacterium tuberculosis, UniProt P9WNZ1); assay: biochemical; assay type: biochemical; settings: for activity at 0.015625 µM / activity at 0.03125 µM / activity at 0.0625 µM / activity at 0.25 µM: relative to average DMSO CT; for Activity R1 / Activity R3: slope of absorbance at 360 vs time (s)
[1] = 3.125 uM 1b, relative to average DMSO CT, replicates R1-R3
[2] = 6.25 uM 1b, relative to average DMSO CT, replicates R1-R3
[3] = 25 uM 1b, relative to average DMSO CT, replicates R1-R3
[4] = 50 uM 1b, relative to average DMSO CT, replicates R1-R3
[5] = 100 uM 1b, relative to average DMSO CT, replicates R1-R3

Chain of human CoaB (HCoaB) (Q9HAB8 whole entry): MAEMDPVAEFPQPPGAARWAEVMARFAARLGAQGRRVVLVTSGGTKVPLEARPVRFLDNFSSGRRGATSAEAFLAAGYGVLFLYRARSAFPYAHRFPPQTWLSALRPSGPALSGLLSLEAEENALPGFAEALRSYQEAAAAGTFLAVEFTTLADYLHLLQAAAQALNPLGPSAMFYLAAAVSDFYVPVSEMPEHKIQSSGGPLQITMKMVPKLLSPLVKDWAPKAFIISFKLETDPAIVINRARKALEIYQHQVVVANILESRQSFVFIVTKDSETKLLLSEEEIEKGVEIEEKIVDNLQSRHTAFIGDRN
Chain of MtbCoaBC (P9WNZ1 whole entry): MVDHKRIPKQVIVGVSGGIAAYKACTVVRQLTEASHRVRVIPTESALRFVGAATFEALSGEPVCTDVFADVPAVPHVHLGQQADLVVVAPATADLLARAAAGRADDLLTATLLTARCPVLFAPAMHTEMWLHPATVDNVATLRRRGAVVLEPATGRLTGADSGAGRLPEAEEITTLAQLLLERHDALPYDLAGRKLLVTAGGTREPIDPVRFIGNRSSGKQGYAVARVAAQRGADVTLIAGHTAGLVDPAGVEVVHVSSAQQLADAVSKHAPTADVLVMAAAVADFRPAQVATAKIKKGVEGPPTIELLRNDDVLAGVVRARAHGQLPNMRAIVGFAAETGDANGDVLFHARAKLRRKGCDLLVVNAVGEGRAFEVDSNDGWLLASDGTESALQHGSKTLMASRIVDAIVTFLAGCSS

## O=C(c1ccc(O)cc1)c1ccc(O)c(O)c1O [compound 1b]
Human CoaB (HCoaB); 1 µM enzyme, average of three independent experiments ± SD
  IC50: 122 ± 22 µM
Human CoaB (HCoaB); [1]
  Activity %: 96.65% and 97.82%
  activity at 3.125 µM: 97.6%
Human CoaB (HCoaB); 3.125 uM 1b, replicates R1-R3
  Inhibition %: 2.18% and 2.43%
  inhibition at 3.125 µM: 3.35%
  Activity: 0.0001351 and 0.0001338 and 0.0001354
Human CoaB (HCoaB); [2]
  Activity %: 95.26% and 96.32%
  activity at 6.25 µM: 97.7%
Human CoaB (HCoaB); 6.25 uM 1b, replicates R1-R3
  Inhibition %: 4.74% and 3.68% and 2.34%
  Activity: 0.0001352 and 0.0001319 and 0.0001333
Human CoaB (HCoaB); [3]
  Activity %: 82.72% and 82.77%
  activity at 25 µM: 81.5%
Human CoaB (HCoaB); 25 uM 1b, replicates R1-R3
  Inhibition %: 17.23% and 18.55%
  inhibition at 25 µM: 17.3%
  Activity: 0.0001127 and 0.0001145 and 0.0001146
Human CoaB (HCoaB); [4]
  Activity %: 63.96% and 63.87%
  activity at 50 µM: 75.6%
Human CoaB (HCoaB); 50 uM 1b, replicates R1-R3
  Inhibition %: 36.13% and 24.38%
  inhibition at 50 µM: 36%
  Activity: 0.0001047 and 0.000088534 and 0.000088398
Human CoaB (HCoaB); [5]
  Activity %: 56.11% and 53.46%
  activity at 100 µM: 60.5%
Human CoaB (HCoaB); 100 uM 1b, replicates R1-R3
  Inhibition %: 46.54% and 39.47%
  inhibition at 100 µM: 43.9%
  Activity: 0.000083783 and 0.000077656 and 0.000074000
Human CoaB (HCoaB); 200 uM 1b, replicates R1-R3, compound interference at 200uM makes the assay unreliable
  Activity: -0.000004063 and 0.000002127 and -0.000001796
MtbCoaBC; 0.015625 uM 1b, replicate R1, read-out: Inhibition % R1
  inhibition at 0.015625 µM: 2.55%
MtbCoaBC; 0.015625 uM 1b, replicate R1, read-out: Activity % R1
  activity at 0.015625 µM: 97.4%
MtbCoaBC; 0.015625 uM 1b, replicate R1
  Activity R1: 0.0001869
MtbCoaBC; 0.015625 uM 1b, replicate R2, read-out: Inhibition % R2
  inhibition at 0.015625 µM: 2.2%
MtbCoaBC; 0.015625 uM 1b, replicate R2, read-out: Activity % R2
  activity at 0.015625 µM: 97.8%
MtbCoaBC; 0.015625 uM 1b, replicate R3, read-out: Inhibition % R3
  inhibition at 0.015625 µM: 1.31%
MtbCoaBC; 0.015625 uM 1b, replicate R3, read-out: Activity % R3
  activity at 0.015625 µM: 98.7%
MtbCoaBC; 0.015625 uM 1b, replicate R3
  Activity R3: 0.0001893
MtbCoaBC; 0.03125 uM 1b, replicate R1, read-out: Inhibition % R1
  inhibition at 0.03125 µM: 6.71%
MtbCoaBC; 0.03125 uM 1b, replicate R1, read-out: Activity % R1
  activity at 0.03125 µM: 93.3%
MtbCoaBC; 0.03125 uM 1b, replicate R1
  Activity R1: 0.0001789
MtbCoaBC; 0.03125 uM 1b, replicate R2, read-out: Inhibition % R2
  inhibition at 0.03125 µM: 2.99%
MtbCoaBC; 0.03125 uM 1b, replicate R2, read-out: Activity % R2
  activity at 0.03125 µM: 97%
MtbCoaBC; 0.03125 uM 1b, replicate R3, read-out: Inhibition % R3
  inhibition at 0.03125 µM: 1.51%
MtbCoaBC; 0.03125 uM 1b, replicate R3, read-out: Activity % R3
  activity at 0.03125 µM: 98.5%
MtbCoaBC; 0.03125 uM 1b, replicate R3
  Activity R3: 0.0001889
MtbCoaBC; 0.0625 uM 1b, replicate R1, read-out: Inhibition % R1
  inhibition at 0.0625 µM: 9.45%
MtbCoaBC; 0.0625 uM 1b, replicate R1, read-out: Activity % R1
  activity at 0.0625 µM: 90.5%
MtbCoaBC; 0.0625 uM 1b, replicate R1
  Activity R1: 0.0001736
MtbCoaBC; 0.0625 uM 1b, replicate R2, read-out: Inhibition % R2
  inhibition at 0.0625 µM: 5.43%
MtbCoaBC; 0.0625 uM 1b, replicate R2, read-out: Activity % R2
  activity at 0.0625 µM: 94.6%
MtbCoaBC; 0.0625 uM 1b, replicate R3, read-out: Inhibition % R3
  inhibition at 0.0625 µM: 12.9%
MtbCoaBC; 0.0625 uM 1b, replicate R3, read-out: Activity % R3
  activity at 0.0625 µM: 87.1%
MtbCoaBC; 0.0625 uM 1b, replicate R3
  Activity R3: 0.0001671
MtbCoaBC; 0.25 uM 1b, replicate R1, read-out: Inhibition % R1
  inhibition at 0.25 µM: 34.5%
MtbCoaBC; 0.25 uM 1b, replicate R1, read-out: Activity % R1
  activity at 0.25 µM: 65.5%
MtbCoaBC; 0.25 uM 1b, replicate R1
  Activity R1: 0.0001256
MtbCoaBC; 0.25 uM 1b, replicate R2, read-out: Inhibition % R2
  inhibition at 0.25 µM: 38.6%
MtbCoaBC; 0.25 uM 1b, replicate R2, read-out: Activity % R2
  activity at 0.25 µM: 61.4%
MtbCoaBC; 0.25 uM 1b, replicate R3, read-out: Inhibition % R3
  inhibition at 0.25 µM: 42.2%
MtbCoaBC; 0.25 uM 1b, replicate R3, read-out: Activity % R3
  activity at 0.25 µM: 57.8%
MtbCoaBC; 0.25 uM 1b, replicate R3
  Activity R3: 0.0001108
